The values below come from US11033539B2, “Compounds of formulas (VII), (VIII), (IX), (XI), (XII), (XIII), and (XIV) as muscarinic receptor 4(M4) antagonists for treating neurological diseases” (Neurocrine Biosciences, Inc., priority 2015, dated 2021).

For this experiment, the target named is human M4 receptor (Homo sapiens (Human), UniProt P08173). In words: Radioligand (tritiated N-methylscopolamine) binding assay, M4. To be noted: Ki against the M4 receptor; membranes from CHO cells expressing human M4; tritiated N-methylscopolamine 1.5 nM; read-out: Ki. The method, then:
Binding affinity (Ki) of compounds was measured by inhibition of radioligand binding to membranes from CHO cells expressing human M1, M2, M3, M4 and M5 receptors. Membranes were prepared by nitrogen cavitation and differential centrifugation as previously described (Hoare et al., Mol. Pharmacol. 2003 March; 63(3): 751-65). The radioligand employed was tritiated N-methylscopolamine, used at a concentration of 1.5 nM. A dose-response of twelve concentrations of compound was used, ranging from 10 μM to […]. The assay buffer was 50 mM HEPES, 100 mM NaCl, 5 mM MgCl2, 1 mM ethylenediaminetetraacetic acid, pH-adjusted to pH 7.4. Membranes, radioligand and compound were incubated together for 90 minutes at 37° C., in a total volume of 150 μl in a 96-well plate. Receptor-bound radioligand was then collected by harvesting the assay over glass fiber filters pretreated with polyethylenimine to trap the cell membranes, using rapid vacuum filtration. Harvesting and radioactivity counting was conducted as previously described (see, e.g., Hoare et al., Mol. Pharmacol. 2003 63(3):751-65); Erratum at Mol. Pharmacol. 2005 July; 68(1): 260).

Sequence of human M4 receptor (P08173 whole entry): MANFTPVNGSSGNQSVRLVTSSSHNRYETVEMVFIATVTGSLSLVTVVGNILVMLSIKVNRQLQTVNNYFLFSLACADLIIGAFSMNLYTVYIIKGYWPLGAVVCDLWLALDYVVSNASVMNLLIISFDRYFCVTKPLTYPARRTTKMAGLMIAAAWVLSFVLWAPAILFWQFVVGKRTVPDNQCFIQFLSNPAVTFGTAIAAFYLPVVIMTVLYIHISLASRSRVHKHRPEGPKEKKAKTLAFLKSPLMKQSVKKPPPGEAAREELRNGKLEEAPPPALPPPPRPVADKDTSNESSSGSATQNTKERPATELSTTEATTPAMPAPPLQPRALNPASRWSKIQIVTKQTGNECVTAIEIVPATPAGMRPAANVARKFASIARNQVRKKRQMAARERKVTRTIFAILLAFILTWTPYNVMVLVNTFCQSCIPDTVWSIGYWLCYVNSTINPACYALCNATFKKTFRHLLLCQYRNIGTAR

As to `C[C@@H]1CN(c2ccccc2)CCN1C(=O)NCCC1CCN(Cc2ccccc2)CC1` [4-47, (2R)-N-[2-(1-benzylpiperidin-4-yl)ethyl]-2-methyl-4-phenylpiperazine-1-carboxamide], the Ki fell in the range of 10 to 100 nM.
Regarding `C[C@@H]1CN(c2ncc(F)cc2F)CCN1C(=O)NCCC1CCN(Cc2ccccc2)CC1` [4-48, (2R)-N-[2-(1-benzylpiperidin-4-yl)ethyl]-4-(3,5-difluoropyridin-2-yl)-2-methylpiperazine-1-carboxamide], the Ki is 10 to 100 nM.
Under `C[C@@H]1CN(c2ccccc2F)CCN1C(=O)NCCC1CCN(Cc2ccccc2)CC1` [4-49, (2R)-N-[2-(1-benzylpiperidin-4-yl)ethyl]-4-(2-fluorophenyl)-2-methylpiperazine-1-carboxamide] stands 100 to 1000 nM.
As for `COc1cccc(N2CCN(C(=O)NCCC3CCN(Cc4ccccc4)CC3)[C@H](C)C2)n1` [4-51, (2R)-N-[2-(1-benzylpiperidin-4-yl)ethyl]-4-(6-methoxypyridin-2-yl)-2-methylpiperazine-1-carboxamide], the figure is 100 to 1000 nM; as for `C[C@@H]1CN(c2ncc(F)c(C#N)n2)CCN1C(=O)NCCC1CCN(Cc2ccccc2)CC1` [4-55, (2R)-N-[2-(1-benzylpiperidin-4-yl)ethyl]-4-(4-cyano-5-fluoropyrimidin-2-yl)-2-methylpiperazine-1-carboxamide], 100 to 1000 nM; as for `COc1ccc(N2CCN(C(=O)NCCC3CCN(Cc4ccccc4)CC3)CC2C)cc1` (stereo not shown) [4-56, N-[2-(1-benzylpiperidin-4-yl)ethyl]-4-(4-methoxyphenyl)-3-methylpiperazine-1-carboxamide], 100 to 1000 nM.
Under `C[C@@H]1CN(c2cncc(F)c2)CCN1C(=O)NCCC1CCN(Cc2ccccc2)CC1` [4-61, (2R)-N-[2-(1-benzylpiperidin-4-yl)ethyl]-4-(5-fluoropyridin-3-yl)-2-methylpiperazine-1-carboxamide] stands 100 to 1000 nM; under `C[C@@H]1CN(c2ccccn2)CCN1C(=O)NCCC1CCN(Cc2ccccc2)CC1` [4-62, (2R)-N-[2-(1-benzylpiperidin-4-yl)ethyl]-2-methyl-4-(pyridin-2-yl)piperazine-1-carboxamide], 100 to 1000 nM.
For the molecule `Cc1cncc(N2CCN(C(=O)NCCC3CCN(Cc4ccccc4)CC3)[C@H](C)C2)c1` [4-63, (2R)-N-[2-(1-benzylpiperidin-4-yl)ethyl]-2-methyl-4-(5-methylpyridin-3-yl)piperazine-1-carboxamide], the Ki fell in the range of 100 to 1000 nM.
For `C[C@@H]1CN(c2ncccn2)CCN1C(=O)NCCC1CCN(Cc2ccccc2)CC1` [4-64, (2R)-N-[2-(1-benzylpiperidin-4-yl)ethyl]-2-methyl-4-(pyrimidin-2-yl)piperazine-1-carboxamide], the Ki is 100 to 1000 nM.
In the case of `COc1nc(N2C[C@@H](C)N(C(=O)NCCC3CCN(Cc4ccccc4)CC3)[C@@H](C)C2)ncc1C#N` [4-69, (2R,6S)-N-[2-(1-benzylpiperidin-4-yl)ethyl]-4-(5-cyano-4-methoxypyrimidin-2-yl)-2,6-dimethylpiperazine-1-carboxamide], the Ki was 10 to 100 nM.
Under `COc1ccc(N2CCN(C(=O)NCCC3CCN(Cc4ccccc4)CC3)[C@H](C)C2)cc1F` [4-70, (2R)-N-[2-(1-benzylpiperidin-4-yl)ethyl]-4-(3-fluoro-4-methoxyphenyl)-2-methylpiperazine-1-carboxamide] stands 10 to 100 nM; under `O=C(NCCC1CCN(Cc2ccccc2)CC1)N1CCN(c2cc(F)c(F)c(F)c2)CC1` [4-74, N-[2-(1-benzylpiperidin-4-yl)ethyl]-4-(3,4,5-trifluorophenyl)piperazine-1-carboxamide], 10 to 100 nM; under `C[C@@H]1CN(c2nc(C#N)cc(C#N)n2)CCN1C(=O)NCCC1CCN(Cc2ccccc2)CC1` [4-75, (2R)-N-[2-(1-benzylpiperidin-4-yl)ethyl]-4-(4,6-dicyanopyrimidin-2-yl)-2-methylpiperazine-1-carboxamide], 10 to 100 nM.
As for `C[C@@H]1CN(c2ncc(C#N)cc2F)C[C@H](C)N1C(=O)NCCC1CCN(Cc2ccccc2)CC1` [4-78, (2S,6R)-N-[2-(1-benzylpiperidin-4-yl)ethyl]-4-(5-cyano-3-fluoropyridin-2-yl)-2,6-dimethylpiperazine-1-carboxamide], the Ki fell in the range of 10 to 100 nM.
Under `C[C@@H]1CN(c2ncc(C(=O)O)cn2)CCN1C(=O)NCCC1CCN(Cc2ccccc2)CC1` [5-2, 2-[(3R)-4-{[2-(1-benzylpiperidin-4-yl)ethyl]carbamoyl}-3-methylpiperazin-1-yl]pyrimidine-5-carboxylic acid] stands 100 to 1000 nM; under `C[C@@H]1CN(c2ncc(Cl)c(Cl)n2)CCN1C(=O)NCCC1CCN(Cc2ccccc2)CC1` [5-3, (2R)-N-[2-(1-benzylpiperidin-4-yl)ethyl]-4-(4,5-dichloropyrimidin-2-yl)-2-methylpiperazine-1-carboxamide], 100 to 1000 nM; under `C[C@@H]1CN(c2ncc(C#N)c(NCC(F)(F)F)n2)C[C@H](C)N1C(=O)NCCC1CCN(Cc2ccccc2)CC1` [5-4, (2S,6R)-N-[2-(1-benzylpiperidin-4-yl)ethyl]-4-{5-cyano-4-[(2,2,2-trifluoroethyl)amino]pyrimidin-2-yl}-2,6-dimethylpiperazine-1-carboxamide], 10 to 100 nM.
As for `C[C@@H]1CN(c2nc(F)c(F)c(F)n2)CCN1C(=O)NCCC1CCN(Cc2ccccc2)CC1` [5-6, (2R)-N-[2-(1-benzylpiperidin-4-yl)ethyl]-2-methyl-4-(trifluoropyrimidin-2-yl)piperazine-1-carboxamide], the figure is 10 to 100 nM.
With `C[C@@H]1CN(c2ncc(C#N)c(NCC(F)(F)F)n2)CCN1C(=O)NCCC1CCN(Cc2ccccc2)CC1` [5-7, (2R)-N-[2-(1-benzylpiperidin-4-yl)ethyl]-4-{5-cyano-4-[(2,2,2-trifluoroethyl)amino]pyrimidin-2-yl}-2-methylpiperazine-1-carboxamide], the inhibition constant Ki fell in the range of 10 to 100 nM.
As for `C[C@@H]1CN(c2ncc(F)c(Cl)n2)CCN1C(=O)NCCC1CCN(Cc2ccccc2)CC1` [5-9, (2R)-N-[2-(1-benzylpiperidin-4-yl)ethyl]-4-(4-chloro-5-fluoropyrimidin-2-yl)-2-methylpiperazine-1-carboxamide], the figure is 100 to 1000 nM; as for `C[C@@H]1CN(c2ncc(Br)c(Cl)n2)CCN1C(=O)NCCC1CCN(Cc2ccccc2)CC1` [5-10, (2R)-N-[2-(1-benzylpiperidin-4-yl)ethyl]-4-(5-bromo-4-chloropyrimidin-2-yl)-2-methylpiperazine-1-carboxamide], 100 to 1000 nM; as for `COC(=O)c1cc(Cl)nc(N2CCN(C(=O)NCCC3CCN(Cc4ccccc4)CC3)[C@H](C)C2)n1` [5-11, methyl 2-[(3R)-4-{[2-(1-benzylpiperidin-4-yl)ethyl]carbamoyl}-3-methylpiperazin-1-yl]-6-chloropyrimidine-4-carboxylate], 100 to 1000 nM.
Under `COC(=O)c1cc(C)nc(N2CCN(C(=O)NCCC3CCN(Cc4ccccc4)CC3)[C@H](C)C2)n1` [5-12, methyl 2-[(3R)-4-{[2-(1-benzylpiperidin-4-yl)ethyl]carbamoyl}-3-methylpiperazin-1-yl]-6-methylpyrimidine-4-carboxylate] stands 100 to 1000 nM; under `C[C@@H]1CN(c2ncc(C#N)cn2)CCN1C(=O)NCCC1CCN(Cc2ccccc2)CC1` [5-13, (2R)-N-[2-(1-benzylpiperidin-4-yl)ethyl]-4-(5-cyanopyrimidin-2-yl)-2-methylpiperazine-1-carboxamide], 10 to 100 nM; under `C[C@@H]1CN(c2ncc(C#N)c(N(C)C)n2)CCN1C(=O)NCCC1CCN(Cc2ccccc2)CC1` [5-15, (2R)-N-[2-(1-benzylpiperidin-4-yl)ethyl]-4-[5-cyano-4-(dimethylamino)pyrimidin-2-yl]-2-methylpiperazine-1-carboxamide], 10 to 100 nM.
As for `COc1nc(N2CCN(C(=O)NCCC3CCN(Cc4ccccc4)CC3)[C@H](C)C2)ncc1C#N` [5-16, (2R)-N-[2-(1-benzylpiperidin-4-yl)ethyl]-4-(5-cyano-4-methoxypyrimidin-2-yl)-2-methylpiperazine-1-carboxamide], the inhibition constant (Ki) is 10 to 100 nM.
For `C[C@@H]1CN(c2ncc(F)cn2)C[C@H](C)N1C(=O)NCCC1CCN(Cc2ccccc2)CC1` [5-19, (2S,6R)-N-[2-(1-benzylpiperidin-4-yl)ethyl]-4-(5-fluoropyrimidin-2-yl)-2,6-dimethylpiperazine-1-carboxamide], the Ki was in the range of 10 to 100 nM.
Under `CNc1nc(N2C[C@@H](C)N(C(=O)NCCC3CCN(Cc4ccccc4)CC3)[C@@H](C)C2)ncc1C#N` [5-21, (2R,6S)-N-[2-(1-benzylpiperidin-4-yl)ethyl]-4-[5-cyano-4-(methylamino)pyrimidin-2-yl]-2,6-dimethylpiperazine-1-carboxamide] stands 100 to 1000 nM; under `N#Cc1cnc(N2CCN(C(=O)NCCC3CCN(Cc4ccccc4)CC3)C[C@H]2CO)nc1` [5-25, (3S)-N-[2-(1-benzylpiperidin-4-yl)ethyl]-4-(5-cyanopyrimidin-2-yl)-3-(hydroxymethyl)piperazine-1-carboxamide], 100 to 1000 nM; under `N#Cc1cnc(N2CCN(C(=O)NCCC3CCN(Cc4ccccc4)CC3)[C@@H](CO)C2)nc1` [5-26, (2R)-N-[2-(1-benzylpiperidin-4-yl)ethyl]-4-(5-cyanopyrimidin-2-yl)-2-(hydroxymethyl)piperazine-1-carboxamide], 100 to 1000 nM.
